The test system of one assay is monocytes. Description: Phagocytosis assay (whole blood), monocytes. On the set-up: dose or concentration left out as unconfirmed. As to conditions: VB-201 doses of 5 or 10. In kind it is cell-based, human. How it is done:
Phagocytosis assays were conducted using pHrodo™ Phagocytosis Particle Labeling Kit (Invitrogen) according to the manufacturer protocol. […] Then, pHrodo dye-labeled E. coli bacteria were mixed with the treated blood samples, in 20:1 ratio of pHrodo™ particles to phagocytosing cells and incubated for additional 15 minutes. Each sample was analyzed both at 4° C. (no phagocytosis, negative control) and 37° C. Following incubation, red blood cells were removed by lysis and the samples were washed 3 times with wash buffer. For gating on specific subpopulations, cells were labeled with anti-CD14-FITC (monocytes and granulocytes marker, BD Biosciences) and anti-CD66b-PerCP/Cy5.5 (granulocytes marker, BioLegend) antibodies. pHrodo fluorescence intensity was analyzed by FACS.
To this end, a phagocytosis assay was performed on whole blood from healthy donors, and the capacity of leukocyte subsets to phagocytose PE-labeled E. Coli particles was tested in presence or absence of VB-201. As a negative control, we used blood without bacterial particles, while a positive control included blood and labeled-bacterial particles incubated at 37° C. Cells were then stained with CD14 and CD66b antibodies to differentiate between monocytes and granulocytes and were analyzed by FACS.

In another assay the target is TLR2 (Homo sapiens, UniProt O60603). As to conditions: 1 μM SAA, 5 μg/ml VB-201.
TLR2, sequence (O60603 21-784): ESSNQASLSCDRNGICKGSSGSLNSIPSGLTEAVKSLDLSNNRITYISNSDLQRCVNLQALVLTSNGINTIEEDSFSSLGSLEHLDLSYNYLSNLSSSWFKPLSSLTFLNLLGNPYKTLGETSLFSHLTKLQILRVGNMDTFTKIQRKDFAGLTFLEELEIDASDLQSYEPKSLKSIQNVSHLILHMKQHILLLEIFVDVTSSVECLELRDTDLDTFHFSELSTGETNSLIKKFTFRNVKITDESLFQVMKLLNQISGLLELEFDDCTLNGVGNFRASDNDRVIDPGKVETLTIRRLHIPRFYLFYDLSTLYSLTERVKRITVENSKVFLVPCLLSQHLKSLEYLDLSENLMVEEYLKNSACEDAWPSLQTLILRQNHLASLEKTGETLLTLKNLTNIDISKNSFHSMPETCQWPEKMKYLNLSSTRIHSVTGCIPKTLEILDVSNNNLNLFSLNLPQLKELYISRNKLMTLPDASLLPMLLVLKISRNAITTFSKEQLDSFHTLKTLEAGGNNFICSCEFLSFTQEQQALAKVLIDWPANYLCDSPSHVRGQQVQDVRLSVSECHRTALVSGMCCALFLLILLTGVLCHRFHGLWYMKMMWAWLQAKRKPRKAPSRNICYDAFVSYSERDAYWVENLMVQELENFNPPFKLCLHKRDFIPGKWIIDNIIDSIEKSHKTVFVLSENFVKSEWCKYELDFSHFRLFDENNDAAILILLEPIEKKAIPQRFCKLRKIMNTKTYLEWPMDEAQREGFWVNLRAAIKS
Assay [1] concerns Human monocyte-derived dendritic cells (DCs). Description: cAMP accumulation assay. In kind it is cell-based. The following applies: 4 hours; VB-201 1-5 μg/ml; oxidized PAPC escalating doses; forskolin positive control. How it is done: Cells were incubated for 4 hours at 37° C. in the presence of the phosphodiesterase inhibitors IBMX (Calbiochem; 0.5 mM) and RO-20-1724 (Biomol; 0.5 mM) to prevent cAMP degredation. For the quantification of [^3H]cAMP formation, the incubation was terminated by removal of the medium and addition of 2.5% perchloric acid containing 0.1 mM unlabeled cAMP (Sigma), followed by neutralization with 4.2 M KOH and 1.85 M K2CO3.
(In general: Changes in cAMP serve as a functional read-out for many G protein-coupled receptors.)

In assay [2] the test system is phosphorylation of Akt, MEK1/2, ERK1/2 and p38 in human monocytes. Description: Chemokine-induced signaling in human monocytes, Western blot. Background: In western blotting, separated proteins are transferred to a membrane and probed.
Description: Untreated cells were used as reference for MCP-1 activation. Following treatment, cells were washed twice, harvested with lysis buffer and analyzed by SDS-PAGE. […] Alpha Tubulin levels serve as loading control.
Assay [3] deals with NIH-3T3 mouse fibroblasts. Description: Wound-healing 'scratch' assay. The format is cell-based. The following applies: data not shown.
A further assay deals with T1, TLR4 (Mus musculus, UniProt Q9QUK6).
T1 sequence (Q9QUK6 26-835): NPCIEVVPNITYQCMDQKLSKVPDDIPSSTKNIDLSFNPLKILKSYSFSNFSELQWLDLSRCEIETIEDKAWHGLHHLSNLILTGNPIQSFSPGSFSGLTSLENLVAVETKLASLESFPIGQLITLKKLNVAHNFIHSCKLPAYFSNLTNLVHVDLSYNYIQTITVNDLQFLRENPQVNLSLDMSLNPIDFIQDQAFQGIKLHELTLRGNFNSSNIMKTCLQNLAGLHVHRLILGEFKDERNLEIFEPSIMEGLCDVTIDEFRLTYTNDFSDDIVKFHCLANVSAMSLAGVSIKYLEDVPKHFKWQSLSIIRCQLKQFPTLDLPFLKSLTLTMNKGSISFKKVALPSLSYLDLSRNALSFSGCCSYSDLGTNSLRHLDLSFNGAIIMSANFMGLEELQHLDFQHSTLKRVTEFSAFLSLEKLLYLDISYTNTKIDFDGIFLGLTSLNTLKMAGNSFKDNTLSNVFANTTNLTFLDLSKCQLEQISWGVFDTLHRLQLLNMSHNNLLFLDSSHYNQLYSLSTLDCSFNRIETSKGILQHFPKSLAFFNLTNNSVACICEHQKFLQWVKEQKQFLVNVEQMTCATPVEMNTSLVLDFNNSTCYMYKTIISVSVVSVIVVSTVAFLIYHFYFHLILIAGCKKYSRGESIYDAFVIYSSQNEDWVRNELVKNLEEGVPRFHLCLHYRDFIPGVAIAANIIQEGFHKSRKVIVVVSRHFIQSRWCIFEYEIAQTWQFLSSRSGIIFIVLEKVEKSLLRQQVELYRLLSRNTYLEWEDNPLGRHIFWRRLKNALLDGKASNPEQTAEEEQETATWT
T1 sequence (Q9JHF9 19-160 partner): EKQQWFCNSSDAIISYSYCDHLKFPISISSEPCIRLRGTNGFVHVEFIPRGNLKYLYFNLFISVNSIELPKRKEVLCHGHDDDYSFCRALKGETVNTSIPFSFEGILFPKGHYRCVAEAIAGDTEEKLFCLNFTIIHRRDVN

In assay [4] the test system is Human monocytes (CD14+ cells). The experiment in a line: In vitro cell migration (trans-well chemotaxis) assay of human monocytes. The format is cell-based. How it is done: Following incubation, cells were loaded to the upper chamber and allowed to migrate for 3.5 hours towards 0.5% fetal bovine serum/RPMI-1640 medium supplemented with recombinant human MCP-1 and RANTES (50 ng/ml each).
In order to further ascertain the significance of ERK1/2 phosphorylation and MEK1/2 phosphorylation to monocyte chemotaxis, the effect of the RAF inhibitor GW5074, which reduces MEK and ERK phosphorylation, on monocyte chemotaxis was determined in a trans-well migration assay using a combination of MCP-1 ([…]) and RANTES (70 ng/ml) as attractant. Monocytes were pre-treated with 5 μM GW5074 for 30 minutes prior to seeding in the migration chamber.
For this purpose, monocytes from healthy donors were pre-incubated for 30 min with either solvent (0.005% ethanol/PBS), phosphatidylcholine (PC; 5 μg/ml), partially oxidized PAPC (24 h oxidation; 40 μg/ml) or PGPC (5 μg/ml), and allowed to migrate towards recombinant human MCP-1 (CCL2; ligand for CCR2) and RANTES (CCL5; ligand for CCR1, CCR3, CCR5, US28) as attractants (50 ng/ml each). […]

A further assay concerns chemokine receptors. The experiment in a line: GPCR activation assay, agonist mode (calcium flux). In kind it is cell-based. As to conditions: 12.5 μM VB-201; ChemiScreen stable cell lines. A general note: Calcium flux is commonly read through the fluorescence of an indicator in the cells.
Where [5] appears, read: 5 μg/ml VB-201, MCP-1 and MCP-3-stimulated cells.

Read-outs that look alike come from different tables or passages of the source.

Protocol for TLR4: Cells were washed and re-suspended in lysis buffer containing 1:100 dithiothreitol (DTT) (Bio-Lab), and phosphatase and protease inhibitors (Thermo Scientific). Samples were loaded on a precasted Criterion TGX gel (BIO-RAD, UK) and transferred onto nitrocellulose membrane. Blots were blocked with 5% milk or bovine serum albumin (BSA) in TBST (Tris buffer saline with TWEEN 20) for 1 hour, followed by incubation with primary and secondary antibodies. Membranes were developed using the ECL kit (Thermo Scientific).
Toll-like receptors were activated in mouse BMDCs (bone marrow dendritic cells) by specific agonists, and the effect of receptor activation was determined via Western blot for phosphorylation of p38 MAP kinase, which is downstream of TLRs.
Protocol for chemokine receptors: Analyses were performed by Millipore GPCR Profiler Service, by measuring intracellular calcium signal in real time using FLIPR^TETRA device. […] Antagonist percentage inhibition was referenced to EC80 control wells for each tested GPCR.

With `CCCCCCCCCCCCCCCCOC[C@H](COP(=O)([O-])OCC[N+](C)(C)C)OCCCCC(=O)O` [VB-201, (R)-1-hexadecyl-2-(4′-carboxyl)butyl-sn-glycero-3-phosphocholine], the monocyte phagocytosis capacity entry in the assay with monocytes is given as “did not have any significant effect”. Also, the “activation of p38, ERK1/2 and the NFκB pathway following activation of TLR2 by serum amyloid A” value on TLR2 (THP-1 cells) is “inhibited activation of p38, ERK1/2 and the NFκB pathway”. At TLR2 (human CD14+ cells), the “activation of p38, ERK1/2 and the NFκB pathway following activation of TLR2 by serum amyloid A” value is “inhibited activation of p38, ERK1/2 and the NFκB pathway”. The “intracellular cAMP levels” value in assay [1] is on record as “not affected”. In assay [2] (50 ng/ml RANTES), the “ERK1/2 phosphorylation in stimulated monocytes” value is recorded as “inhibited ERK1/2 phosphorylation”. In addition, the “phosphorylation levels of ERK1/2” value in assay [2] (5 μg/ml VB-201, Fractalkine-stimulated cells) is given as “considerable reduction”. Moreover, in assay [2] (setting [5]), the “phosphorylation levels of Akt” value is recorded as “considerable reduction”, the “phosphorylation levels of ERK1/2” value is “considerable reduction”, the “phosphorylation levels of MEK1/2” value is “considerable reduction” and the “phosphorylation levels of p38” value is listed as “but not in phosphorylation levels of p38”. Besides, in assay [2] (8.5 μM VB-201 for 2, 5 or 15 min, 10 ng/ml MCP-1, 16 hrs), the “ERK1/2 phosphorylation in monocytes pre-stimulated with MCP-1 overnight” value is listed as “reduction of ERK1/2 phosphorylation in starting at 5 min”. The “cell migration in wound-healing scratch assay” value in assay [3] is given as “no effect on cell migration”. For the same compound, the LPS-induced signaling entry on TLR4 (RAW 264.7 murine macrophages) is reported as “inhibited LPS-induced signaling in a dose-dependent manner”. In addition, at TLR4 (mouse BMDCs, LPS, 1.7, 8.5 or 17 μM), the “p38 phosphorylation following activation of TLR4” value is reported as “inhibited p^38 phosphorylation in a dose-dependent manner”. Also, at TLR4 (mouse peritoneal macrophages, LPS, 1.7, 8.5 or 17 μM), the “activation of p38, ERK1/2 and the NFκB pathway following activation of TLR4” value was “inhibited activation of p38, ERK1/2 and the NFκB pathway in a dose-dependent manner”. Moreover, the “C-reactive protein-induced chemotaxis of human monocytes” value in assay [4] (8.5 μM VB-201, 30 min, 50 ug/ml CRP, 3.5 hours, p<0.01) was “inhibit chemotaxis induced by CRP”. Moreover, the “reduction of monocyte chemotaxis towards MCP-1 and RANTES (50 ng/ml each)” value in assay [4] (30 min pre-incubation, PC 5 μg/ml, partially oxidized PAPC 40 μg/ml, PGPC 5 μg/ml, VB-201 5 μg/ml) is “profound inhibition of monocyte chemotaxis”. Moreover, in assay [4] (VB-201 5 μg/ml, MCP-1 50 ng/ml, compared to solvent control), the “reduction of monocyte migration, MCP-1 as chemoattractant” value is “approximately 80%”. In assay [4] (VB-201 5 μg/ml, MIP-1α 50 ng/ml, compared to solvent control), the “reduction of monocyte migration, MIP-1α as chemoattractant” value is about 68%. Also, the “reduction of monocyte migration, RANTES as chemoattractant” value in assay [4] (VB-201 5 μg/ml, RANTES 100 ng/ml, compared to solvent control) is on record as about 72%. Besides, the “monocyte chemotaxis towards the compound (cell attractant in lower chamber)” value in assay [4] (data not shown) is recorded as “no monocyte chemotaxis towards VB-201 occurred”. Besides, the “inhibition of monocyte migration towards HUVEC growth medium” value in assay [4] (dose of 5 μg/ml) is given as “about 60%”. In assay [4] (escalating doses), the “monocyte migration towards HUVEC growth medium” value is given as “reduced the number of migrating cells in a dose-dependent fashion”. In addition, the “activation relative to positive controls (agonist, Ca++ flux)” value in the assay on chemokine receptors is on record as “less than 5%”.

These data come from patent publication US20150320773A1, “TREATMENT OF INFLAMMATION” (Vascular Biogenics Ltd., priority 2011, published 2015).
